The source made the active and inactive calls.
Assays:
[1] = target: T1, Fructose-bisphosphate aldolase (Mycobacterium tuberculosis, UniProt P9WQA3); test: Fluorescence-based biochemical high throughput dose response assay for inhibitors of the fructose-bisphosphate aldolase (FBA) of M. tuberculosis.; type: functional
T1 sequence (P9WQA3 whole entry): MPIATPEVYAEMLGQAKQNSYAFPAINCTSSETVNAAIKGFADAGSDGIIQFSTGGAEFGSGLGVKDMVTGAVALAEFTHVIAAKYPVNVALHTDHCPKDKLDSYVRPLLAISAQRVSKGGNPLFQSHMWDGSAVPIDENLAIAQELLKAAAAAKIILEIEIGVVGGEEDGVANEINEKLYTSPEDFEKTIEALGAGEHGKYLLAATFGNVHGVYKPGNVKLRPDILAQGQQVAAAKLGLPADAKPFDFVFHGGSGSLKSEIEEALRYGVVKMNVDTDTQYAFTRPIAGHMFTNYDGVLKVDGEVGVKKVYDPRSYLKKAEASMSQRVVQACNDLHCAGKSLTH

BJ [2] = test: cytotoxicity toward BJ-TERT fibroblasts, dose response, cell-based, RAS-independent, luminescence (AID 1933); type: functional; conditions: Homo sapiens
BJ [3] = test: cells; type: functional, cell-based; conditions: Homo sapiens
[4] = target: Luciferin 4-monooxygenase (Photinus pyralis, UniProt P08659); test: firefly luciferase enzyme inhibitors, dose response, biochemical, luminescence (AID 1891)
[5] = Luminescence Cell-Based Dose Confirmation HTS to Identify Inhibitors of Platelet Dense Granule Release. [Related pubchem assays: 1663 (Primary HTS), 1678 (Summary of Project)]; type: functional
BJ [6] = test: cytotoxicity toward BJ-TERT-LT-ST fibroblasts, dose response, cell-based, RAS-independent, luminescence (AID 1935); type: functional; conditions: Homo sapiens;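 note: BJ fibroblasts immortalized with TERT plus LT and ST oncogenes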
[7] = cytotoxicity toward DRD oncogenic fibroblasts, dose response, cell-based, non-viral oncogenic, luminescence (AID 1934); type: functional; conditions: Homo sapiens
Caspase-6 = target: T2, Caspase-6 (Homo sapiens, UniProt P55212); test: human caspase-6 inhibitors, dose response, biochemical, VEID-R110 fluorescence, cherry-pick (AID 720632)
T2 sequence (P55212 whole entry): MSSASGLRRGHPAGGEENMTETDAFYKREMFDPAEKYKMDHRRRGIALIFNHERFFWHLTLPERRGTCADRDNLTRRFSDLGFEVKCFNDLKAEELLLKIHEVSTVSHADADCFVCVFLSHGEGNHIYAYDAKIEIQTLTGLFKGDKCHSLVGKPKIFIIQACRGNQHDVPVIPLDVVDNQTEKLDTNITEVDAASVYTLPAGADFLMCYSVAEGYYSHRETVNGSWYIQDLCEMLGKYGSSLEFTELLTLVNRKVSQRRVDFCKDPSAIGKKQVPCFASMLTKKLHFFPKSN

HEK293 = test: inhibitors of LMP1-driven NF-kB reporter, dose response, cell-based, HEK293, luciferase, cherry-pick (AID 588343); type: functional; conditions: Homo sapiens
[8] = human group III sPLA2 inhibitors, dose response, biochemical, QFRET, IC50 (AID 743457);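 note: green fluorescence rise as the enzyme cleaves BODIPY PC-A2 in liposomes; potency for inhibition of the enzyme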
Caspase-3 = target: T3, Caspase-3 (Homo sapiens, UniProt P42574); type: functional;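 note: Dose-response selectivity test against caspase-3 for candidate inhibitors of sentrin-specific proteases (SENPs)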
T3 sequence (P42574 whole entry): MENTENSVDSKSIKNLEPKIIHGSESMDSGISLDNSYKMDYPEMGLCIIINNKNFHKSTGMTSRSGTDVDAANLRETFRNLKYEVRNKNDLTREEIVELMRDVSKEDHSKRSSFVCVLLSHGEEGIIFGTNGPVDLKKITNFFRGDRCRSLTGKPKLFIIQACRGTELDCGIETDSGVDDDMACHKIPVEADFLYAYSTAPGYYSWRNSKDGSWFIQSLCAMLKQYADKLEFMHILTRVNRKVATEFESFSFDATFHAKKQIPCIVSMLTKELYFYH

[9] = target: T4, Sentrin-specific protease 7 (Homo sapiens, UniProt Q9BQF6); type: functional;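 note: Luminescence-based dose-response confirmation of ultra-high-throughput screening hits, measuring inhibition of SENP7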
T4 sequence (Q9BQF6 whole entry): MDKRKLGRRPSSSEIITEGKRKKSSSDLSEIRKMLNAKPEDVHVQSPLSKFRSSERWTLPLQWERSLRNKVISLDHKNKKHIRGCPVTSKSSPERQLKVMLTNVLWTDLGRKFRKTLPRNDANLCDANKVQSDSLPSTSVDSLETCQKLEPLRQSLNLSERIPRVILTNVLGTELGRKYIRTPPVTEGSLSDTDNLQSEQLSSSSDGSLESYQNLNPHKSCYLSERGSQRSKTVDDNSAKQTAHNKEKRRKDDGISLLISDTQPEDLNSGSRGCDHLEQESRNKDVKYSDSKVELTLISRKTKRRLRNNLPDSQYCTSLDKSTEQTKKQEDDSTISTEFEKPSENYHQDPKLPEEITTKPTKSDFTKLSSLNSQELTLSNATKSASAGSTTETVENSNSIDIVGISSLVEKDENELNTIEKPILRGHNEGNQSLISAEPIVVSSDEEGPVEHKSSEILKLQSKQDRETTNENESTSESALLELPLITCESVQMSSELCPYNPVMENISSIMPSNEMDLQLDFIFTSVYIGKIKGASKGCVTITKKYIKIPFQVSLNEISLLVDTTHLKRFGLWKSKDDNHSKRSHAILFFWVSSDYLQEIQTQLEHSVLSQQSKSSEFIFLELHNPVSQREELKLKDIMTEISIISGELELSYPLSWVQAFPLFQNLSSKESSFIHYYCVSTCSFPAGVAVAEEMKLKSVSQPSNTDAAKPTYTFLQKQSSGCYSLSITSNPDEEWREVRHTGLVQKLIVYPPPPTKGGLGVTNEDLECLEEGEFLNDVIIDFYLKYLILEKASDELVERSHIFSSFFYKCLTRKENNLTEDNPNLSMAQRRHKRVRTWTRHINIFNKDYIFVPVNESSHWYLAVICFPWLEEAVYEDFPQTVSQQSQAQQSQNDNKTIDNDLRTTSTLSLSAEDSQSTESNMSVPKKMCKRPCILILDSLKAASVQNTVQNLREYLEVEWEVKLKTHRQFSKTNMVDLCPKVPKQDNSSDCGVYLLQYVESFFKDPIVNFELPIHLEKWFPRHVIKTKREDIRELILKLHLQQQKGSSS

[10] = target: T5, Sentrin-specific protease 6 (Homo sapiens, UniProt Q9GZR1); type: functional;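 note: Luminescence-based dose-response confirmatory assay of SENP6 inhibition, following up an ultra-high-throughput screen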
T5 sequence (Q9GZR1 whole entry): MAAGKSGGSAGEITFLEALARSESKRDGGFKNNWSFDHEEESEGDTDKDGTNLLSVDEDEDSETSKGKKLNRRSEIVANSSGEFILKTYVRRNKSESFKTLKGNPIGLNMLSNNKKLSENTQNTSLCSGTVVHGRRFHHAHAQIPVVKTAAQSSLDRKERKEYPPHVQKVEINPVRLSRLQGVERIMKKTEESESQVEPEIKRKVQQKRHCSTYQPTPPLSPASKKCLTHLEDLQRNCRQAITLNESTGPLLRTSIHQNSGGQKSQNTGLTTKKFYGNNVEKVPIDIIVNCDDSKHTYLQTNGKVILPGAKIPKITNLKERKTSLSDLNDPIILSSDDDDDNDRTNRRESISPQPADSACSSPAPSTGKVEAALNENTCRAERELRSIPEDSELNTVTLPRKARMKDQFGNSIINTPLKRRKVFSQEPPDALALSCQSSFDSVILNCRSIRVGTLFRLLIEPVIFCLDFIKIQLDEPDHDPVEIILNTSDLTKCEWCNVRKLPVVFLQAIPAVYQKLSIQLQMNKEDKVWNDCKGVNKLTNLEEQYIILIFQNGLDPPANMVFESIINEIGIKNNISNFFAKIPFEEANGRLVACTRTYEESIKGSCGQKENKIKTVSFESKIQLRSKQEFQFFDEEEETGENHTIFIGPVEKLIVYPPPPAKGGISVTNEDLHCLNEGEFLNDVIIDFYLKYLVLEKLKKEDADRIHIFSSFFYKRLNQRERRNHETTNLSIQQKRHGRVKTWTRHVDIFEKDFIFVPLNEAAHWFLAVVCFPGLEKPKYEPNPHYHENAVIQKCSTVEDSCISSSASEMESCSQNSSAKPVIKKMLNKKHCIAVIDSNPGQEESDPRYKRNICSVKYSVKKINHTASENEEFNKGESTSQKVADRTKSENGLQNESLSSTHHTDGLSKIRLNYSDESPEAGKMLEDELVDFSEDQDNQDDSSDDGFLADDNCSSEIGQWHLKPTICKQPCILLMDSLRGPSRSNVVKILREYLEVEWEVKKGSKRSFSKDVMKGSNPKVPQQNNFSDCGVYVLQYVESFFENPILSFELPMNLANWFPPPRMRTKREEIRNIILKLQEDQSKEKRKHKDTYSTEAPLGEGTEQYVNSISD

[11] = target: T6, Sentrin-specific protease 8 (Homo sapiens, UniProt Q96LD8); type: functional;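 note: luminescence read-out of SENP8 inhibition, dose-response confirmation following an ultra-high-throughput screen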
T6 sequence (Q96LD8 whole entry): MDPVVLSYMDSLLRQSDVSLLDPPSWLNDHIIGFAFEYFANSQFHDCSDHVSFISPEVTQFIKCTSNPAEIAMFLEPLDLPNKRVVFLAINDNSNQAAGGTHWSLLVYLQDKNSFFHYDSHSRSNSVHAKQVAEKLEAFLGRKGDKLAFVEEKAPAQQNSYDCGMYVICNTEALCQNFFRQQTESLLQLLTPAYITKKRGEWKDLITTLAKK

[12] = target: SWI/SNF-related matrix-associated actin-dependent regulator of chromatin subfamily A member 2 (Homo sapiens, UniProt P51531); test: Luminescence-based cell-based high throughput dose response assay to identify activators of the function of SWI/SNF related, matrix associated, actin dependent regulator of chromatin, subfamily a, member 2 (SMARCA2, BRM).; type: functional
[13] = Counterscreen for activators of the function of SWI/SNF related, matrix associated, actin dependent regulator of chromatin, subfamily a, member 2 (SMARCA2, BRM): Luminescence-based cell-based high throughput dose response assay to identify non-selective compounds using the VP16 reporter assay.; type: functional
[14] = A549 cell cytotoxicity, dose response, cytotoxicity control, plate reader, cherry-pick, antagonist series (AID 743412); type: functional, cell-based
[15] = LGR2 antagonists, dose response, cell-based, HEK293, CRE-luciferase reporter, cherry pick, set 2 (AID 743343); type: functional;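 note: transfected cells were stimulated with diluted bursicon conditioned medium after compound addition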
[16] = MC4R antagonists, dose response, counter-screen for LGR2 antagonist project, cell-based, plate reader, cherry pick (AID 743444); type: functional;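 note: transfected HEK 293 cells stimulated with alpha-MSH peptide; potency of inhibitors of the alpha-MSH evoked signal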
[17] = HEK293 cell cytotoxicity, dose response, cytotoxicity control, plate reader, cherry-picked samples (AID 743446); type: functional, cell-based
[18] = HEp-2 cell cytotoxicity, dose response, cytotoxicity control for RSV inhibitor project, HTS (AID 2410); type: functional; conditions: human respiratory syncytial virus
[19] = microbe, parasite or virus in culture; type: functional; conditions: Mycobacterium tuberculosis
[20] = inhibitors of intracellular T. cruzi replication, confirmation, NIH3T3 host cells, beta-gal luminescence (AID 2044); type: functional, cell-based;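 note: intracellular parasites grown in NIH/3T3 mouse fibroblasts as host cells; luminescent beta-galactosidase reporter signal from transgenic T. cruzi replicating inside host cells; inhibitors lower the luminescence signal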
[21] = cytotoxicity toward NIH3T3 fibroblasts, dose response, counter-screen, cell-based, ATP luminescence, mouse fibroblasts (AID 2010); type: functional;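 note: cells exposed to compound for about 90 hours before reading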
[22] = HEK293T cytotoxicity, dose response, cytotoxicity control for miR-122 modulator project, cell-based, inhibitor set, cherry-pick, set 2 (AID 720697); type: functional

Sequence of SWI/SNF-related matrix-associated actin-dependent regulator of chromatin subfamily A member 2 (P51531 whole entry): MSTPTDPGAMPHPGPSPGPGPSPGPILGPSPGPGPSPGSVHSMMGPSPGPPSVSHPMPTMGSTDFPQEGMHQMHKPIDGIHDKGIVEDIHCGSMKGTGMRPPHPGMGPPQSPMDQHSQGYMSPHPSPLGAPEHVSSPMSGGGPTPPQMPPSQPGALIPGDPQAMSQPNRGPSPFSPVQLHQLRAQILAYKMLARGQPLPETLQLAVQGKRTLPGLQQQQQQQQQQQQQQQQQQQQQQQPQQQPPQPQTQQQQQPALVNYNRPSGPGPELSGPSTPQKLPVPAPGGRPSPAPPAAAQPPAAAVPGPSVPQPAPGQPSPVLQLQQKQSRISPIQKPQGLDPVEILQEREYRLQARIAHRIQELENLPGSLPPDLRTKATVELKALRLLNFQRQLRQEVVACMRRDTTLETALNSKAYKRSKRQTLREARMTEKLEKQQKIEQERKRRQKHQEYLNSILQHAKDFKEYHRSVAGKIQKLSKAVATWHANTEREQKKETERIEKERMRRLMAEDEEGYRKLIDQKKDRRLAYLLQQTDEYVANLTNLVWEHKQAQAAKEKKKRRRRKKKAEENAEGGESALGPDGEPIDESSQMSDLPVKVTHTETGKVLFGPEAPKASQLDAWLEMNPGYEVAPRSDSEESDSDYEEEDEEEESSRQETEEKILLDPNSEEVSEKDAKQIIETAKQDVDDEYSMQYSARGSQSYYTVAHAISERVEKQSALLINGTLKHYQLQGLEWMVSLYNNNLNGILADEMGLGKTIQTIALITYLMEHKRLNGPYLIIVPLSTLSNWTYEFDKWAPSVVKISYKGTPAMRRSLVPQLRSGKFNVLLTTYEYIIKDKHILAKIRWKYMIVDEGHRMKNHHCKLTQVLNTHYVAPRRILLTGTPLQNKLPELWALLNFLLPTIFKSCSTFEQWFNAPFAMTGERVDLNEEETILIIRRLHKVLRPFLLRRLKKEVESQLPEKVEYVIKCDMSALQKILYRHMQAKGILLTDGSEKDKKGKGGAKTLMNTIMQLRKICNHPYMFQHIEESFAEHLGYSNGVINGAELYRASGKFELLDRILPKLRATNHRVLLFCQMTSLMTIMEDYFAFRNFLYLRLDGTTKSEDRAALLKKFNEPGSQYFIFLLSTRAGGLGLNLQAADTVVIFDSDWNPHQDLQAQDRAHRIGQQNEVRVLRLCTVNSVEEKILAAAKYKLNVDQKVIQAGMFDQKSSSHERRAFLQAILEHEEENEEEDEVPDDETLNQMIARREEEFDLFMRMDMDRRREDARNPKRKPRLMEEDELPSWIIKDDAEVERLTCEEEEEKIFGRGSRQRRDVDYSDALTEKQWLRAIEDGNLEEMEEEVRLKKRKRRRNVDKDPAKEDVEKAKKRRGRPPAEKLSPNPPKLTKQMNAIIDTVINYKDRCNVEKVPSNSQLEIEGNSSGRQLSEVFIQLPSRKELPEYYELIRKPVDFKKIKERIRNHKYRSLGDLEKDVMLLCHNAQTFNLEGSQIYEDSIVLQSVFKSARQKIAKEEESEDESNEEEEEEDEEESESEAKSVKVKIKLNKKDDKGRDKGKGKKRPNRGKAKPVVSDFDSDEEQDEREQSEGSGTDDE
Sequence of Luciferin 4-monooxygenase (P08659 whole entry): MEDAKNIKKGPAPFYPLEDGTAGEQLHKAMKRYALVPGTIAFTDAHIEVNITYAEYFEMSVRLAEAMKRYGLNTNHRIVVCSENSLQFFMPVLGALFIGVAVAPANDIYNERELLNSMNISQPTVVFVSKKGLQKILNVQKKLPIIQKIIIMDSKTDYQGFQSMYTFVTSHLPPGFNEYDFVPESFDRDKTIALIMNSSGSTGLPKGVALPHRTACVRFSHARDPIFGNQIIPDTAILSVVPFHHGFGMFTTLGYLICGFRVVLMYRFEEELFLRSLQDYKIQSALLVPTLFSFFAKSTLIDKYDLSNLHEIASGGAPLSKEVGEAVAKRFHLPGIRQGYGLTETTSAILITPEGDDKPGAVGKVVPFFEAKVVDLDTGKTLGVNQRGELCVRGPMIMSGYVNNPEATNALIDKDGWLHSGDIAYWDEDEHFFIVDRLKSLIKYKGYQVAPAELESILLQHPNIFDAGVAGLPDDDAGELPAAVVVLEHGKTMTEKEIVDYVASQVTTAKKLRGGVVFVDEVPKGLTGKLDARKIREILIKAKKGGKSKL

Cc1nc2cc(-c3cccs3)nn2c(O)c1C
IC50 [1]: > 3.33 µM (active)

Cn1c(N=Nc2ccccc2)nc2ccccc21
EC50 (BJ [2]): 6.48 µM (active)
EC50 (BJ [3]): 4.78 µM (inconclusive)
EC50 [4]: 1.5 µM (active)
EC50 [5]: 1.78 µM (active)
EC50 (BJ [6]): 9.38 µM (active)
EC50 [7]: 6.84 µM (inconclusive)
AC50 (Caspase-6): 38.1 µM (active)

O=C1C(=O)N(c2ccccc2)C(c2ccccc2)C1c1ccccc1 (stereo not given)
IC50 [1]: > 9.99 µM (inactive)

COC(=O)/C=C/C(=O)Nc1cccc(C(F)(F)F)c1
AC50 (HEK293): 11.1 µM (active)

CC(C)(C)c1csc(NNC(=O)c2ccc(Cl)cc2)n1
IC50 [8]: > 122 µM (inactive)

O=C(Nc1ccccc1)N1CC=C(c2ccc(F)cc2)CC1
IC50 (Caspase-3): 34.3 µM (active)
IC50 [9]: 14.9 µM (active)
IC50 [10]: 54.5 µM (active)
IC50 [11]: 86.8 µM (active)

COc1cc(OC)cc(-c2nc3ccccc3s2)c1
EC50 [12]: > 91.1 µM (inactive)
EC50 [13]: > 91.1 µM (inactive)

CC/N=c1\sc(C(=O)OC)cc(=O)n1CC
EC50 [12]: > 91.2 µM (inactive)
EC50 [13]: > 91.2 µM (inactive)

Cc1ccc(C(=O)Nc2ccc3c(c2)OCCO3)cc1
AC50 (HEK293): 2.05 µM (active)
AC50 [14]: > 52 µM (inactive)
AC50 [15]: 2.67 µM (active)
AC50 [16]: 4.05 µM (active)

CSc1nc2ccc(NC(=O)c3ccccn3)cc2s1
AC50 [15]: 4.16 µM (active)
AC50 [16]: 5.41 µM (active)
AC50 [17]: > 52 µM (inactive)

O=C1NC(=O)/C(=C/c2ccc(-c3cccc([N+](=O)[O-])c3)o2)S1
CC50 [18]: 1.93 µM (active)
CC50 [19]: > 40 µM (active)
IC50 (Caspase-3): 13.6 µM (active)
IC50 [9]: 50.7 µM (active)
IC50 [10]: 17 µM (active)
IC50 [11]: 55.7 µM (active)

CCS(=O)(=O)N1N=C(c2ccc(NS(C)(=O)=O)cc2)CC1c1ccccc1 (stereo not given)
IC50 [1]: > 0.37 µM (active)

O=C(Oc1c(CN2CCOCC2)cc(Cl)c2cccnc12)c1ccccc1F
EC50 [20]: 1.65 µM (active)
EC50 [21]: 8.05 µM (active)
EC50 [12]: > 91.2 µM (inactive)
EC50 [13]: > 91.2 µM (inactive)

C=CCn1c(C)c(C(C)=O)c(N2CCN(C(c3ccccc3)c3ccccc3)CC2)nc1=S
AC50 (HEK293): 63.8 µM (active)

COc1ccc2nc3c(O)n(Cc4ccncc4)cnc-3c2c1
IC50 [1]: 0.97 µM (active)

CC(C)NC(=O)N1[C@H](CO)[C@@H](c2ccccc2)[C@@H]1CN(C)C(=O)c1cccnc1
AC50 [22]: 0.538 µM (active)

Sc1nnc(CCc2ccccc2)n1-c1ccc(Cl)cc1
IC50 [8]: > 122 µM (inactive)

COCC(=O)N1CCCCN2[C@H](CO)[C@H](c3ccc(-c4cccc(C)c4)cc3)[C@@H]2C1
AC50 [14]: > 52 µM (inactive)
AC50 [15]: 18 µM (active)
AC50 [16]: 23.6 µM (active)
AC50 [17]: > 52 µM (inactive)

COc1ccc(NC(=O)c2ccc(-c3ccccc3Cl)o2)cc1
IC50 (Caspase-3): 16.2 µM (active)
IC50 [9]: 4.54 µM (active)
IC50 [10]: 4.21 µM (active)
IC50 [11]: > 100 µM (inactive)

O=C(NNc1nc(-c2ccccc2)cs1)c1ccco1
IC50 [8]: > 122 µM (inactive)

Reference: ChEMBL document CHEMBL1201862, “PubChem BioAssay data set” (2004)
